Source: patent US20240327393A1 (SIRONAX LTD., priority 2021, published 2024)

system: HT-1080 (ATCC, CCL-121) cells; test: HT-1080 cell viability assay with ferroptosis inducer RSL3 (Cell Titer-Glo); format: cell-based; conditions: Homo sapiens; HT-1080 cells treated with RSL3; 3-fold, 10-point dilution, 1.1 μM highest concentration; Table 2; read-out: EC50 (nM), ferroptosis inhibitory activity
Summary of the method: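 HT-1080 cells (6000 per well) were cultured overnight at 37 °C, then co-treated with RSL3 and compound in a 3-fold, 10-point series topping at 1.1 μM. Viability was read by CellTiter-Glo luminescence and normalized to untreated controls. EC50 came from a sigmoidal non-linear regression fit.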

| SMILES | EC50 |
| --- | --- |
| C#Cc1ccc(Nc2ccc3c(c2)n(C)c(=O)n3C)cc1 [Compound 290, 5-((4-ethynylphenyl)amino)-1,3-dimethyl-1,3-dihydro-2H-benzo[d]imidazol-2-one] | 0.1 to 100 nM |
| CCOc1ccc(Nc2ccc3c(c2)n(C)c(=O)n3C)cc1 [Compound 309, 5-((4-ethoxyphenyl)amino)-1,3-dimethyl-1,3-dihydro-2H-benzo[d]imidazol-2-one] | 0.1 to 100 nM |
| CCN(CCCOC)c1ccc(Nc2ccc3c(c2)OCC(=O)N3C)cc1 [Compound 31, 7-((4-(ethyl(3-methoxypropyl)amino)phenyl)amino)-4-methyl-2H-benzo[b][1,4]oxazin-3(4H)-one] | 0.1 to 100 nM |
| CC(C)(C)c1ccc(Nc2ccc3c(c2)OCC(=O)N3CCO)cc1 [Compound 82, 7-((4-(tert-butyl)phenyl)amino)-4-(2-hydroxyethyl)-2H-benzo[b][1,4]oxazin-3(4H)-one] | 0.1 to 100 nM |
| CN1Cc2cc(Nc3ccc(-c4ccccc4)cc3)ccc2C1=O [Compound 228, 5-([1,1′-biphenyl]-4-ylamino)-2-methylisoindolin-1-one] | 0.1 to 100 nM |
| NC(=O)CCCN1C(=O)COc2cc(Nc3ccc(N4CCC(C(F)(F)F)CC4)cc3)ccc21 [Compound 46, 4-(3-oxo-7-((4-(4-(trifluoromethyl)piperidin-1-yl)phenyl)amino)-2,3-dihydro-4H-benzo[b][1,4]oxazin-4-yl)butanamide] | 0.1 to 100 nM |
| CN(C)c1ccc(Nc2ccc3c(c2)n(C)c(=O)n3C)cc1 [Compound 284, 5-((4-(dimethylamino)phenyl)amino)-1,3-dimethyl-1,3-dihydro-2H-benzo[d]imidazol-2-one] | 0.1 to 100 nM |
| CCN1Cc2ccc(Nc3ccc(N4CCCCC4)c(C(F)(F)F)c3)cc2C1 [Compound 177, 2-ethyl-N-(4-(piperidin-1-yl)-3-(trifluoromethyl)phenyl)isoindolin-5-amine] | 0.1 to 100 nM |
| NC(=O)NCCn1ncc2cc(Nc3ccc(N4CCC(C(F)(F)F)CC4)cc3)ccc21 [Compound 421, 1-(2-(5-((4-(4-(trifluoromethyl)piperidin-1-yl)phenyl)amino)-1H-indazol-1-yl)ethyl)urea] | 0.1 to 100 nM |
| Cn1cnc2ccc(Nc3ccc(N4CCC(C(F)(F)F)CC4)cc3)cc21 [Compound 350, 1-methyl-N-(4-(4-(trifluoromethyl)piperidin-1-yl)phenyl)-1H-benzo[d]imidazol-6-amine] | 0.1 to 100 nM |
| CNCCCn1c(=O)oc2ccc(Nc3ccc(N4CC(C)OC(C)C4)cc3)cc21 (centres unmarked) [Compound 416] | 0.1 to 100 nM |
| C/N=c1\n(C)c2ccc(Nc3ccc(N4CCC(C(F)(F)F)CC4)cc3)cc2n1C [Compound 340, 1,3-dimethyl-2-(methylimino)-N-(4-(4-(trifluoromethyl)piperidin-1-yl)phenyl)-2,3-dihydro-1H-benzo[d]imidazol-5-amine] | 0.1 to 100 nM |
| CC1CCN(c2ccc(Nc3ccc4c(c3)N(C)CC4(C)C)cc2)CC1 [Compound 338, 1,3,3-trimethyl-N-(4-(4-methylpiperidin-1-yl)phenyl)indolin-6-amine] | 0.1 to 100 nM |

Now from value to compound:

| EC50 | SMILES |
| --- | --- |
| 0.1 to 100 nM | NC(=O)CN1C(=O)COc2cc(Nc3ccc(N4CCC(C(F)(F)F)CC4)cc3)ccc21 [Compound 14, 2-(3-oxo-7-((4-(4-(trifluoromethyl)piperidin-1-yl)phenyl)amino)-2,3-dihydro-4H-benzo[b][1,4]oxazin-4-yl)acetamide] |
| 0.1 to 100 nM | COc1cc(N2CCC(C(F)(F)F)CC2)ncc1Nc1ccc2c(c1)n(C)c(=O)n2C [Compound 380, 5-((4-methoxy-6-(4-(trifluoromethyl)piperidin-1-yl)pyridin-3-yl)amino)-1,3-dimethyl-1,3-dihydro-2H-benzo[d]imidazol-2-one] |
| 0.1 to 100 nM | COC1(C(F)(F)F)CCN(c2ccc(Nc3ccc4c(c3)n(C)c(=O)n4C)cc2)CC1 [Compound 384, 5-((4-(4-methoxy-4-(trifluoromethyl)piperidin-1-yl)phenyl)amino)-1,3-dimethyl-1,3-dihydro-2H-benzo[d]imidazol-2-one] |
| 0.1 to 100 nM | Cc1cc(=O)oc2cc(Nc3ccc(N4CCC(C(F)(F)F)CC4)cc3)ccc12 [Compound 119, 4-methyl-7-((4-(4-(trifluoromethyl)piperidin-1-yl)phenyl)amino)-2H-chromen-2-one] |
| 0.1 to 100 nM | COCCN1C(=O)COc2cc(Nc3ccc(N4CC(C)OC(C)C4)cc3)ccc21 (centres unmarked) [Compound 95, 7-((4-(2,6-dimethylmorpholino)phenyl)amino)-4-(2-methoxyethyl)-2H-benzo[b][1,4]oxazin-3(4H)-one] |
| 0.1 to 100 nM | CN1C(=O)NCc2cc(Nc3ccc(N4CCC(C(F)(F)F)CC4)cc3)ccc21 [Compound 137, 1-methyl-6-((4-(4-(trifluoromethyl)piperidin-1-yl)phenyl)amino)-3,4-dihydroquinazolin-2(1H)-one] |
| 0.1 to 100 nM | CCC1CN(c2ccc(Nc3ccc4c(c3)OCC(=O)N4C)c(C)c2)CCO1 (centres unmarked) [Compound 147, 7-((4-(2-ethylmorpholino)-2-methylphenyl)amino)-4-methyl-2H-benzo[b][1,4]oxazin-3(4H)-one] |
| 0.1 to 100 nM | Cn1[nH]c2cc(Nc3ccc(N4CCC(C(F)(F)F)CC4)cc3)ccc2c1=O [Compound 191, 2-methyl-6-((4-(4-(trifluoromethyl)piperidin-1-yl)phenyl)amino)-1,2-dihydro-3H-indazol-3-one] |

same assay, conditions: Homo sapiens; HT-1080 cells treated with RSL3; 3-fold, 10-point dilution, 1.1 μM highest concentration; Table 3; read-out: EC50 (nM), ferroptosis inhibitory activity

| SMILES | EC50 |
| --- | --- |
| Cc1cc(N2CCC(C(F)(F)F)CC2)ccc1Nc1ccc2c(C(N)=O)cn(C)c2c1 [Compound 551, 1-methyl-6-((2-methyl-4-(4-(trifluoromethyl)piperidin-1-yl)phenyl)amino)-1H-indole-3-carboxamide] | 0.1 to 100 nM |
| CCC1Oc2cc(Nc3ccc(C4CCOCC4)cc3)ccc2N(C)C1=O (centres unmarked) [Compound 472, 2-ethyl-4-methyl-7-((4-(tetrahydro-2H-pyran-4-yl)phenyl)amino)-2H-benzo[b][1,4]oxazin-3(4H)-one] | 0.1 to 100 nM |
| COC1(C(F)(F)F)CN(c2ccc(Nc3ccc4c(c3)OCC(=O)N4)c(C)c2)C1 [Compound 633, 7-({4-[3-methoxy-3-(trifluoromethyl)azetidin-1-yl]-2-methylphenyl}amino)-2,4-dihydro-1,4-benzoxazin-3-one] | 0.1 to 100 nM |
| CC1CN(c2ccc(Nc3ccc4c(c3)OCC(=O)N4)cc2)CC(C(F)(F)F)O1 (centres unmarked) [Compound 561, 7-((4-(2-methyl-6-(trifluoromethyl)morpholino)phenyl)amino)-2H-benzo[b][1,4]oxazin-3(4H)-one] | 0.1 to 100 nM |
| Cc1cc(NC(C)(C)C)ccc1Nc1ccc2c(c1)OCC(=O)N2 [Compound 634, 7-((4-(tert-butylamino)-2-methylphenyl)amino)-2H-benzo[b][1,4]oxazin-3(4H)-one] | 0.1 to 100 nM |
| C[C@H]1CN(c2ccc(Nc3ccc4c(c3)OCC(=O)N4)cc2)CCN1C(=O)C(F)(F)F [Compound 553, (S)-7-((4-(3-methyl-4-(2,2,2-trifluoroacetyl)piperazin-1-yl)phenyl)amino)-2H-benzo[b][1,4]oxazin-3(4H)-one] | 0.1 to 100 nM |
| Cc1cc(N2CCC(F)(F)C2)ccc1Nc1ccc2c(c1)OCCC(=O)N2 [Compound 622, 8-((4-(3,3-difluoropyrrolidin-1-yl)-2-methylphenyl)amino)-2,3-dihydrobenzo[b][1,4]oxazepin-4(5H)-one] | 0.1 to 100 nM |
| Cc1cc(N2CCC(C(F)(F)F)CC2)ccc1Nc1ccc2[nH]cc(C(N)=O)c2c1 [Compound 571, 5-((2-methyl-4-(4-(trifluoromethyl)piperidin-1-yl)phenyl)amino)-1H-indole-3-carboxamide] | 0.1 to 100 nM |
